PMC10369045, “Radiolabelling of peptides with tetrazine ligation based on the inverse electron-demand Diels–Alder reaction: rapid, catalyst-free and mild conversion of 1,4-dihydropyridazines to pyridazines” (RSC Advances, 2023)

Experiments:
[1] = Reversed-phase HPLC-RAD/DAD retention of DHP and pyridazine forms; assay type: physicochemical; settings: HPLC-RAD/DAD and HPLC-RAD/UV, Kinetex 5 µm C18 250 × 10.0 mm, 20-50% B in 20 min, H2O/ACN + 0.1% TFA, 3 mL/min, room temperature; elution order used as indication of lipophilicity
Procedure: The HPLC instruments were equipped with either two channel UV/VIS or a PDA detector, and a NaI(Tl) scintillation detector for detection of radioactivity.
Table S2. The gradient used for HPLC-RAD/DAD studies.
Flow rate: 3 mL/min at room temperature
Column: Phenomenex Kinetex® 5 µm C18 100 Å, LC Column 250 × 10.0 mm
Eluents: (A) H2O+0.1% Trifluoroacetic acid and (B) ACN +0.1% Trifluoroacetic acid

[2] = system: SSTR2-expressing rat pancreatic adenocarcinoma AR42J cells; assay: Cell uptake assay in AR42J cells; assay type: cell-based; settings: oxidized pyridazine form, gamma counting
Procedure: Aoct=activity in the octanol phase
APBS=activity in the PBS phase
Cell-uptake assay in AR42J
The cells were cultured in Gibco™ F-12K Medium
1×PBS was prepared from Phosphate Buffered Saline
Tablets (Fisher Bioreagents, Hampton, USA) in water. 1.0 M Sodium hydroxide was purchased from VWR […]
Chemicals. […] AR42J cells (1×106 per […]
well) were seeded overnight on 6-well plates.
Another set of cells were co-incubated in […]
microtube (=free fraction). […]
washing the cells with cold 1×PBS. […] 1 M NaOH […]
microtube (=internalized fraction).

[3] = Incubation tests of IEDDA cycloaddition product (conversion of DHPs to oxidized pyridazine form); assay type: physicochemical; settings: for [18F]AmBF3(ox.)-TOC (%) / Conversion to oxidized form of the peptide cycloadduct: radio-HPLC; for Conversion to oxidized form of the peptide cycloadduct: incubation in ≥95% (v/v) water at 60 °C
Procedure: Protic solvents in acidic reaction conditions at various temperatures were used in-order to investigate the conditions that might influence the formation of the oxidized form from DHPs or that might slow down the process. […] The (radio)peaks of [^19F/^18F]6(a, b) (peptide 6, tR = 20 min) were successfully converted (≥97%) to the more polar compound (peptide 6, tR = 17 min) by incubation in increasing amounts of water in acetonitrile (Fig. 2C). When incubating in 75% (v/v) ACN in water for 10 min at 60 °C, the conversion to polar (peptide 6, tR = 17 min) compound was 59% (ESI Table S7 ^†).
Table S7. Incubation tests of IEDDA cycloaddition product.
Peptide Peptide Solvent Vol. pH Temp. Time [18F] AmBF3 (ox.)-
(nmol) (v/v-%) (µL) (°C) (min) TOC (%)

[4] = Lipophilicity (LogD7.4), shake-flask method
Procedure: Lipophilicity. Shake-flask method was used for determining the lipophilicities (LogD7.4) of the radiolabeled
compounds. LogD7.4 was determined as a distribution of radioactivity between 0.01 M PBS and octanol. The
purified radiolabeled compound (25 µL) was added to a 1:1 mixture of 1-octanol and 0.02 M PBS (pH 7.4) in
a 1.5 mL microtube. The mixture was shaken mechanically at 500 rpm for 10 minutes, centrifuged (1000 × g,
5 minutes), and the layers were separated, followed by pipetting a sample (500 µL) from each layer into a pre-
weighed polypropylene tube. The radioactivity in the sample was measured with a Wizard gamma counter.
The distribution of the radiolabeled compound between the octanol and the PBS layers was calculated

[5] = system: tumour; settings: ex vivo biodistribution and PET/CT imaging; tumour uptake efficiently blocked; ref earlier cohort by us; cited from earlier work
Procedure: In this study, we report a rapid, mild, and facile method for converting dihydropyridazine cycloaddition products to pyridazine during IEDDA, in only 10 minutes.

## C[C@@H](O)[C@@H]1NC(=O)[C@H](CCCCN)NC(=O)[C@@H](Cc2c[nH]c3ccccc23)NC(=O)[C@H](Cc2ccc(O)cc2)NC(=O)[C@@H](NC(=O)[C@@H](Cc2ccccc2)NC(=O)CCOCCOCCOCCOCCON=Cc2ccc(C(=O)NCCOCCOCCOCCNC(=O)OC3CCCC4=C(c5ccc(CC(=O)NCC[N+](C)(C)C[B-](F)(F)F)cc5)NN=CC4CC3)cc2)CSSC[C@@H](C(=O)N[C@H](CO)[C@@H](C)O)NC1=O (stereo partly shown) [[18F]6 (DHP, b)]
[1]
  Retention time: 20.2 min

## C[C@@H](O)[C@@H]1NC(=O)[C@H](CCCCN)NC(=O)[C@@H](Cc2c[nH]c3ccccc23)NC(=O)[C@H](Cc2ccc(O)cc2)NC(=O)[C@@H](NC(=O)[C@@H](Cc2ccccc2)NC(=O)CCOCCOCCOCCOCCON=Cc2ccc(C(=O)NCCOCCOCCOCCNC(=O)OC3CCCc4cnnc(-c5ccc(CC(=O)NCC[N+](C)(C)C[B-](F)(F)F)cc5)c4CC3)cc2)CSSC[C@@H](C(=O)N[C@H](CO)[C@@H](C)O)NC1=O (stereo partly shown) [[18F]6, AmBF3-PEG7-TOC]
[2]; 1 million AR42J cells per well, 37 °C, triplicates per timepoint, blocked by co-incubation with excess non-radiolabelled octreotide
  Cell uptake in AR42J cells (specificity, blocking with octreotide): specific uptake
[2]; internalized fraction after glycine buffer (pH 2.8) wash and 1 M NaOH lysis
  Internalization by AR42J cells: internalized by the cells
[3]; 2 nmol peptide, ACN:H2O (25:75), 60 µL, 60 °C, 15 min, n = 1
  [18F]AmBF3(ox.)-TOC (%): 84%
[3]; 2.5 nmol peptide, 0.15 mM citrate buffer, 180 µL, pH 3.75, 60 °C, 10 min
  [18F]AmBF3(ox.)-TOC (%): 9%
[3]; 2.5 nmol peptide, ACN:H2O (25:75), 20 µL, 60 °C, 10 min
  [18F]AmBF3(ox.)-TOC (%): 89%
[3]; 2.5 nmol peptide, ACN:H2O (40:60), 25 µL, 60 °C, 15 min, n = 1
  [18F]AmBF3(ox.)-TOC (%): 77%
[3]; 2.5 nmol peptide, ACN:H2O (75:25), 20 µL, 60 °C, 10 min, n = 1
  [18F]AmBF3(ox.)-TOC (%): 59%
[3]; 5 nmol peptide, 0.01 mM citrate buffer, 180 µL, pH 4, 37 °C, 10 min
  [18F]AmBF3(ox.)-TOC (%): 4%
[3]; 5 nmol peptide, 0.15 mM citrate buffer, 180 µL, pH 3.75, 37 °C, 10 min
  [18F]AmBF3(ox.)-TOC (%): 5%
[3]; 5 nmol peptide, 10 x PBS, 180 µL, pH 6.8, 37 °C, 10 min
  [18F]AmBF3(ox.)-TOC (%): 5%
[3]; 7.5 nmol peptide, ACN:H2O (13:87), 150 µL, 60 °C, 10 min
  [18F]AmBF3(ox.)-TOC (%): 25%
[3]; 7.5 nmol peptide, ACN:H2O (25:75), 20 µL, 40 °C, 20 min
  [18F]AmBF3(ox.)-TOC (%): 86%
[3]; 2-50 nmol peptide, ACN:H2O (≥95% H2O), 20-200 µL, 60 °C, 10 min, n = 1
  [18F]AmBF3(ox.)-TOC (%): 100%
[3]; collected HPLC fraction left at room temperature for 18 hours (overnight), HPLC-DAD and UHPLC-HRMS
  Conversion of DHP peak cluster (tR ≈ 20 min) to single oxidized peak (tR = 17 min) at room temperature: total conversion
[3]
  Conversion to oxidized form of the peptide cycloadduct: full conversion
[4]; shake-flask 1-octanol/PBS (pH 7.4) 1:1, 25 µL purified radiolabelled compound, shaken 500 rpm 10 min, centrifuged 1000 × g 5 min, gamma counter, mean ± SD, n = 3-4, HPLC-separated fractions (DHP a 77%, DHP b 88% pure), listed as [^18F]6(ox.)
  LogD7.4: −0.73 ± 0.12
[5]
  Tumour visualization in vivo: able to visualize the tumour in vivo

## C[C@@H](O)[C@@H]1NC(=O)[C@H](CCCCN)NC(=O)[C@@H](Cc2c[nH]c3ccccc23)NC(=O)[C@H](Cc2ccc(O)cc2)NC(=O)[C@@H](NC(=O)[C@@H](Cc2ccccc2)NC(=O)CCOCCOCCOCCOCCON=Cc2ccc(CNC(=O)OC3CCCc4cnnc(-c5ccc(CC(=O)NCC[N+](C)(C)C[B-](F)(F)F)cc5)c4CC3)cc2)CSSC[C@@H](C(=O)N[C@H](CO)[C@@H](C)O)NC1=O (stereo partly shown) [[18F]5 (ox.), AmBF3-PEG4-TOC]
[3]
  Conversion to oxidized form of the peptide cycloadduct: full conversion
[4]; pH 7.4
  logD: 0.58 ± 0.06
[1]
  Retention time: 18.7 min

## C[C@@H](O)[C@@H]1NC(=O)[C@H](CCCCN)NC(=O)[C@@H](Cc2c[nH]c3ccccc23)NC(=O)[C@H](Cc2ccc(O)cc2)NC(=O)[C@@H](NC(=O)[C@@H](Cc2ccccc2)NC(=O)CCOCCOCCOCCOCCON=Cc2ccc(C(=O)NCCOCCOCCOCCNC(=O)OC3CCCC4=C(c5ccc(CC(=O)NCC[N+](C)(C)C[B-](F)(F)F)cc5)NN=CC4CC3)cc2)CSSC[C@@H](C(=O)N[C@H](CO)[C@@H](C)O)NC1=O (stereo partly shown) [[18F]6 (DHP, a)]
[1]
  Retention time: 20.6 min
